We go through two compounds from US20150374784A1, “COMPOSITIONS AND METHODS FOR REDUCING GERM CELL DEATH” (Los Angeles Biomedical Research Institute at Harbor-UCLA …, priority 2014, published 2015).

Experiment [1] concerns B16 murine melanoma cells. In words: Metastatic lung tumors in mouse B16 melanoma model (Experiments 3 and 4). The class given is in vivo. The procedure:
A total of 25 young adult mice (10-12 weeks) were randomly divided into 5 groups (n=5 per group). Five mice were used as control. Twenty mice were inoculated intravenously with B16 murine melanoma cells (2×10^5 cells/mouse). Among these 20 tumor-inoculated mice, 5 mice received no further treatment. After one week, the remaining 15 mice were divided into 3 groups and injected with: 1) HNG daily IP (5 mg/Kg body weight) for 2 weeks; 2) CP (200 mg/Kg body weight IP single injection); 3) combined CP with HNG treatment (same doses as above). All mice were sacrificed 3 weeks after tumor inoculation, and 2 weeks after HNG and/or CP treatment. The animals were sacrificed with 5% pentobarbital (200 mg/kg body weight) IP injection after which blood was collected from the right atrium of the heart. One of the testes from each mouse was immersed fixed in Bouin's solution, and the mice were perfused with saline and subsequently perfuse-fixed with 5% glutaraldehyde in 0.05 M cacodylate buffer (pH 7.4). The lungs were dissected out and post fixed in 5% glutaraldehyde solution for 24 hours and stored in cacodylate buffer at 4° C. for the subsequent tumor count (Lue, et al., 2010; Lue, et al., 2009).
Experiment 3 was repeated after inoculation of B16 melanoma tumor at week 1 and then treated with the following treatment starting at week 2 (n=5 mice per group): 1). No treatment; 2). HNG IP injections 5 mg/Kg daily; 3) CP 200 mg/Kg single IP injection; 4) HNG 5 mg/Kg/day+CP; 5). HNG IP injections 15 mg/Kg daily; and 6). HNG 15 mg/Kg/day+CP. All animals were euthanized and perfused with 4% paraformaldehyde at the end of week 3. Lungs and testes were collected and processed as in experiment 3.
B16 melanoma tumors in the lung were quantified by counting the number of tumors on the surface of the lungs under stereomicroscopy (Collisson, et al., 2003; Craft, et al., 2005). The size of the tumor was measured using histomorphometry and expressed as average size of tumor. The appearance of the melanoma cells were reviewed and characterized by an expert pathologist.

A further experiment has as its system mouse B16 melanoma cells. As to the kind of experiment: Number of metastatic lung tumors, B16 melanoma (Example 9). The format is in vivo. The conditions noted are these: day 21; CP 200 mg/kg single IP; HNG 5 mg/kg daily IP 14 days. As for the experimental part:
(§1) Methods: Adult male mouse (n=5/group) were seeded with mouse B16 melanoma cells (100,000 cells/mouse) via tail vein on day 1. One week after melanoma cell inoculation, mice were treated either with a single intraperitoneal injection (IP) of CP (200 mg/kg), or daily IP injections of HNG (5 mg/kg), or both for 14 days. Mice were sacrificed at day 21 and lungs were fixed in formaldehyde. Immunohistochemistry was performed on lung metastases with antibodies against phosphorylated-AMPK (p-AMPK), p-4E-BP1 (downstream effector of mTOR) and Ki-67 antigen (a marker of cell proliferation).

The test system of experiment [2] is phosphorylated-AMPK (p-AMPK). In words: Immunohistochemistry of lung metastases: p-AMPK. The class given is in vivo, mouse. Particulars: mean±SD; CP 200 mg/kg single IP; HNG 5 mg/kg daily IP 14 days. The procedure: as §1
Experiment [3] has as its system germ cells in seminiferous tubules. In words: Germ cell apoptosis in mouse seminiferous tubule cultures ex vivo (TUNEL). The format is cell-based. The procedure:
A total of 15 young adult (12-13 week-old) mice were used for these ex vivo studies. The animals were sacrificed with a 5% pentobarbital (200 mg/Kg) IP injection. Testes were dissected and after removing the tunica albuginea, seminiferous tubules isolated from testes were cut into small segments under a dissecting microscope and light and dark segments were separated by dissection. Ten to twelve segments were placed (2 mm in length) in each well on a six well plate with 2 ml serum free Ham F-10 culture medium (GIBCO, Life Technologies, Thermo Fisher Scientific Corp., Carlsbad, Calif.) with the following treatments: control (Con, n=10), heat (43° C., 15 minutes, used as a positive control, n=10); HN 10 μg/mL (n=9); DOX 10 mcM (Dox10, n=10); and DOX 10 mcM+Humanin 10 μg/mL (Dox10+HN, n=10). For these experiments, n represents the total number of times the treatment was repeated using different animals. After 12 hours of incubation at 34° C. the seminiferous tubules from each treatment group were used to make “squashed” seminiferous tubule samples on a slide for TUNEL (TdT-mediated dUTP nick-end labeling) assay to detect germ cell apoptosis (Erkkila, et al., 1997; Toppari & Parvinen, 1985). To quantify the rate of germ cell apoptosis under a light microscope at 400× magnification, a square grid fitted within the eyepiece provided a reference area of 62,500 μm^2. The TUNEL positive apoptotic germ cells within the frame of grid were counted in 4 segments of seminiferous tubules in each group. The incidence of germ cell apoptosis was expressed as the number of apoptotic germ cells per mm^2.
A total of 15 mice were used for ex vivo studies. The animals were sacrificed and seminiferous tubules isolated from testes were cut into small segments under a dissecting microscope to identify light (early stages I-IV and late stages XI-XII) of the seminiferous epithelium) and dark (middle stages VII-VIII) segments. Ten to twelve light segments (2 mm in length) were placed per well on a six well plate with 2 ml serum free medium of F-10 Ham nutrient mixture (Gibco, Life Technologies, Grand Island, N.Y.) following these treatments: control (Con, n=15 where n is the number of times the treatment was repeated with segments obtained from different donor animals), heat (43° C., 15 min.; used as a positive control, n=10), HN 10 μg/mL (HN, n=9), doxorubicin 1 μM (Dox1, n=7), doxorubicin 1 μM+HN 10 μg/mL (Dox1+HN, n=7), doxorubicin 10 μM (Dox10, n=10), and doxorubicin 10 μM+HN 10 μg/mL (Dox10+HN, n=10). After 12 hours of incubation at 34° C. with 5% CO2, the seminiferous tubules from the seven treatment groups were used to make “squashed” seminiferous tubule preparations on a slide for TUNEL assay to detect germ cell apoptosis (Erkkila K, et al., 1997). To quantify the rate of germ cell apoptosis, the squashed segments of seminiferous tubules were examined with an American Optical Microscope (Scientific Instruments, Buffalo, N.Y.) with a 40×objective and a 10×eyepiece lens. A square grid fitted within the eyepiece provided a reference area of 62,500 μm^2. The TUNEL positive apoptotic germ cells within the frame of grid were counted in 4 segments of seminiferous tubules in each group. The incidence of germ cell apoptosis was expressed as the number of apoptotic germ cells per mm^2.

Where [4] appears, read: Experiment 4, vs non-treated, HNG at both 5 mg/kg BW and 15 mg/kg BW, CP 200 mg/Kg.

“Also recorded” adds a separate entry of the source.

As to `O=P1(N(CCCl)CCCl)NCCCO1` (centres unmarked) [CP, cyclophosphamide monohydrate], in experiment [1] (Experiment 3, vs non-treated tumor-bearing mice), the “size of the melanoma metastasis on the surface of the lungs” value is on record as “decreased number of tumors but also tumor size”. Also, in experiment [1] (Experiment 3, vs non-treated tumor-bearing mice, HNG 5 mg/Kg daily IP 2 weeks, CP 200 mg/Kg single IP), the “number of metastatic tumors on the surface of the lungs” value is “decreased number of tumors”. Further, in experiment [1] (setting [4]), the “number of lung tumors” value is “significantly decreased both the number and size of the tumors”; the “size of the lung tumors” value is “significantly decreased both the number and size of the tumors”. For the same compound, the “histology of metastatic lung melanoma cells” value in experiment [1] (HNG 5 mg/kg BW, CP, or both, monohydrate) is “decreased the number of metastatic melanoma cells; also recorded: induced minor differentiation of melanoma cells”. In the experiment with mouse B16 melanoma cells, the “decrease in number of metastatic lung tumors compared to non-treated mice” value is about 50%. Also, the “percent p-AMPK positive cells in metastatic lung melanoma” value in experiment [2] worked out at 11.3±15.6%.
In the case of “MAPRGFSCLLLLTSEIDLPVKRRA [HN, 24-amino acid mitochondrial derived peptide]”, the “number of apoptotic germ cells induced by DOX” value in experiment [3] (HN 10 μg/mL + DOX 10 μM, 12 hours) is given as “significantly reduced the number of apoptotic germ cells”. The “apoptosis induced by low dose doxorubicin” value in experiment [3] (HN 10 μg/mL + doxorubicin 1 μM, 12 hours) is reported as “did not significantly decrease apoptosis”. Further, the “germ cell apoptosis, HN treatment alone compared with control” value in experiment [3] (HN 10 μg/mL, 12 hours ex vivo culture) is on record as “had no significant effect on germ cell apoptosis”. Besides, the “heat induced germ cell apoptosis” value in experiment [3] (HN 10 μg/mL, heat 43° C., 15 min) was “prevented the heat induced germ cell apoptosis”.
